Columns and labels:
HUVECs [1] = test: Intracellular FITC-HPBCD accumulation, fluorescence microscopy; format: cell-based, Human; conditions: 50 µM, 30 min, 37 °C
Experimental: (§1) Human umbilical vein endothelial cells (HUVECs) were removed from umbilical veins by exposure to dispase (0.2% in Hank’s balanced salt solution) and cultured in gelatin-coated flasks in medium 199 containing 15% foetal bovine serum (FBS), antibiotics, L-glutamine, sodium pyruvate and endothelial cell growth supplement from bovine pituitary. For the fluorescent microscopic experiments, cells were seeded onto gelatin-coated round glass coverslips and maintained in medium until the treatments.
HUVECs, cultured on gelatin-coated glass coverslips were washed twice with Hank’s Balanced Salt Solution (HBSS) and treated with 50 µM FITC-HPBCD for 30 min at 37 °C. Cells were washed five times with ice-cold HBSS and fixed with 3% paraformaldehyde for 15 min. After fixation cells were washed with HBSS and the nuclei were stained with Hoechst 33,342 at the final concentration of 300 nM. Cells were washed again and mounted on microscope slides. […] Images were analyzed with ZEN 2012 v.1.1.0.0. software (Carl Zeiss Microscopy GmbH, Göttingen, Germany)

[2] = In vivo and ex vivo fluorescence imaging; set-up: species or system Male BALB/c mice; conditions: mice, i.v.
Experimental: Male BALB/c mice (22–25 g) were bred and maintained in normal watering and feeding conditions in a Laboratory Animal Husbandry Facility, equipped with IVC (individually ventilated cages), controlled atmosphere-temperature, humidity and lighting (Vasile Goldis Western University, Arad, Romania). All experimental procedures were performed in compliance with the appropriate laws and institutional guidelines, and were approved by the Institutional Ethics Committee of Vasile Goldiș Western University of Arad (Arad, Romania). FITC-HPBCD (0.5 and 2.5 mg), dissolved in 0.1 mL saline solution was injected into the femoral vein of mice under general anaesthesia. Maintaining the surgical plane of anesthesia, mice were placed into an in vivo imaging system (In-vivo Xtreme, Carestream, Carestream Health Inc. USA). At 5, 15, 30, 45 and 60 min, fluorescence and X-ray images were recorded of the animals. After 30 or 60 min, the blood vessels of some animals were perfused by warm saline solution and their organs (livers, lungs, kidneys, spleens and brains) were removed for ex vivo imaging (excitation: 480 nm, emission: 535 nm).

HUVECs [3] = test: FITC-HPBCD uptake, flow cytometry; format: cell-based, Human
Experimental: as §1
In the flow cytometry experiments, HUVECs were treated with 50 µM FITC-HPBCD for 30 min at 37 °C and washed five times with ice-cold HBSS. Half of the samples were incubated for a further 60 min in HBSS at 37 °C. After the above-mentioned incubations every sample was trypsinized, the cell suspensions were washed twice with ice-cold HBSS and analyzed with a FACScan flow cytometer (BD Biosciences, San Jose, CA, USA). Propidium-iodide (PI) (2 µg/mL) was added to the samples to recognize dead cells and exclude them from the evaluation. FITC-HPBCD was excited by an argon laser at 488 nm and the emission was detected via 530/30 nm band pass filter. Data were analyzed by BDIS Cellquest software (Becton-Dickinson). The cellular fluorescence intensities of the FITC-HPBCD treated cells were compared to the fluorescence of the untreated control cells and expressed as relative cellular fluorescence intensities.

[4] = In vivo pharmacokinetic investigation, plasma FITC-HPBCD after i.v. administration; set-up: species or system BALB/c male mice; conditions: for CL: clearance = terminal ke × Vd1; for CL / ke (1–15 min) / t1/2 (1–15 min) / t1/2 (15–30 min) / t1/2 (30–60 min) / ke (15–30 min) / t1/2 (15–45 min) / t1/2 (45–60 min) / ke (15–45 min) / kc (1–15 min) / ke (30–60 min) / ke (45–60 min) / Vd: dose 250 µg; for ke (1–15 min): elimination rate constant; for ke (1–15 min) / ke (15–30 min) / ke (15–45 min) / kc (1–15 min) / ke (30–60 min) / ke (45–60 min): in min-1 (unit assumed); for t1/2 (1–15 min) / t1/2 (15–30 min) / t1/2 (30–60 min) / t1/2 (15–45 min) / t1/2 (45–60 min): in min; for Vd at 1 min of sampling: n = 6; for kc (1–15 min): rate constant of compartmentalization; for ke (30–60 min) / ke (45–60 min): terminal phase; for Vd: volume of distribution at 1 min
Experimental: Twelve BALB/c male mice (23–25 g) were involved in the study. 0.25 mg FITC-HPBCD, dissolved in 0.2 mL saline solution was injected into the lateral tail vein of each mouse. Blood samples were collected from the orbital sinus from six mice after 1, 15, 30 and 60 min and at 1, 15, 45 and 60 min from other six mice by the same sampling method. Blood samples were incubated for 1 h at 37 °C and centrifuged for 8 min at 1700 rpm to separate blood plasma. Aliquots of plasma from the samples were placed into black 96-well plates and their fluorescence intensities were measured by a FLUOstar Optima microplate reader (BMG LABTECH, Offenburg, Germany; 492 nm excitation and 520 nm emission wavelengths) and the plasma FITC-HPBCD concentrations were calculated.
The two compartment model was characterized by the following equations:(3) Ct=C^′×e^−kc×t+C^″×e^−ke×t (4) C0=C^′+C^″ where ke is the elimination rate constant of FITC-HPBCD determined from data of the terminal phase (ke(30-60 min) or ke(45-60 min)); t1/2 is the half-life of FITC-HPBCD calculated from the corresponding ke values; CL is the clearance of FITC-HPBCD; Vd is the volume of distribution of FITC-HPBCD determined from data related to the first minute (Vd1); Ct is the plasma concentration of FITC-HPBCD at “t”; C′ and C″ are the two components of the initial plasma concentration of FITC-HPBCD representing the amount of FITC-HPBCD that will be compartmentalized and eliminated, respectively.

[5] = mice, i.v., Group F, sampling 1, 15, 30 and 60 min
[6] = mice, i.v., Group F, sampling 1, 15, 45 and 60 min
[7] = mice, i.v., Group NF, sampling 1, 15, 30 and 60 min
[8] = mice, i.v., Group NF, sampling 1, 15, 45 and 60 min

6-deoxy-6-[(5/6)-fluoresceinylthioureido]-(2-hydroxypropyl)-β-cyclodextrin [FITC-HPBCD]
cellular localization by fluorescence microscopy (HUVECs [1]): detected in the cytoplasm of HUVECs in small green vesicles | ex vivo fluorescence of lungs vs untreated control, separated imaging ([2]; 0.5 mg): higher ex vivo fluorescence | in vivo whole-body fluorescence distribution ([2]; 0.5 mg and 2.5 mg/animal, images at 5-60 min): distributed over the entire body of the animals | ex vivo fluorescence of kidneys ([2]; 0.5 mg, after 30 min): relative higher fluorescence | ex vivo fluorescence of kidneys ([2]; 2.5 mg/animal): especially high fluorescence | ex vivo fluorescence of lung ([2]; 2.5 mg/animal): elevated intensity | ex vivo fluorescence of organs vs control ([2]; 2.5 mg/animal, every organ (livers, lungs, kidneys, spleens, brains)): higher fluorescence intensities | in vivo fluorescence of the bladder ([2]; 30 and 45 min, urinated out at 60 min): accumulated in the bladder | ex vivo fluorescence of brains vs untreated ([2]; after 60 min): no difference | ex vivo fluorescence of brains vs untreated ([2]; both doses (0.5 and 2.5 mg), after 30 min, separated examination): higher fluorescence than the untreated ones | cellular fluorescence after further incubation in HBSS (HUVECs [3]; 50 µM 30 min, then 60 min in HBSS): significantly decreased | cellular fluorescence vs untreated control (HUVECs [3]; 50 µM, 30 min incubation): significantly increased | CL [4, 5]: 0.11 ± 0.15 mL/min | CL [4, 6]: 0.23 ± 0.08 mL/min | CL [4, 7]: 0.25 ± 0.15 mL/min | CL [4, 8]: 0.69 ± 0.38 mL/min | ke (1–15 min) [4, 5]: 0.092 ± 0.023 | ke (1–15 min) [4, 6]: 0.095 ± 0.017 | ke (1–15 min) [4, 7]: 0.115 ± 0.017 | ke (1–15 min) [4, 8]: 0.107 ± 0.006 | Vd at the first minute, average ([4]; mice, i.v., all animals n = 12): 5.7 ± 1.34 mL | t1/2 (1–15 min) ([4]; mice, i.v., Group F (followed two-compartment model), sampling 1, 15, 30 and 60 min): 7.82 ± 1.48 | t1/2 (15–30 min) [4, 5]: 7.54 ± 0.52 | t1/2 (30–60 min) [4, 5]: 122.3 ± 109.4 | ke (15–30 min) [4, 5]: 0.092 ± 0.007 | t1/2 (1–15 min) [4, 6]: 7.5 ± 1.13 | t1/2 (15–45 min) [4, 6]: 13.55 ± 1.45 | t1/2 (45–60 min) [4, 6]: 20.06 ± 3.89 | ke (15–45 min) [4, 6]: 0.052 ± 0.007 | t1/2 (1–15 min) ([4]; mice, i.v., Group NF (did not follow model), sampling 1, 15, 30 and 60 min): 6.13 ± 0.78 | t1/2 (15–30 min) [4, 7]: 35.01 ± 10.15 | t1/2 (30–60 min) [4, 7]: 16.61 ± 7.12 | ke (15–30 min) [4, 7]: 0.022 ± 0.009 | t1/2 (1–15 min) [4, 8]: 6.50 ± 0.31 | t1/2 (15–45 min) [4, 8]: 13.36 ± 3.05 | t1/2 (45–60 min) [4, 8]: 8.99 ± 4.54 | ke (15–45 min) [4, 8]: 0.054 ± 0.013 | Vd at 1 min of sampling ([4]; mice, i.v., group following the model): 5.55 ± 0.98 mL | Vd at 1 min of sampling ([4]; mice, i.v., group not following the model): 5.85 ± 1.72 mL | i.v. administered FITC-HPBCD eliminated from mice within 60 min ([4]; mouse, in vivo, iv): 96.58 ± 2.6% | kc (1–15 min) [4, 5]: 0.109 ± 0.026 | kc (1–15 min) [4, 6]: 0.142 ± 0.033 | ke (30–60 min) [4, 5]: 0.022 ± 0.029 | ke (45–60 min) [4, 6]: 0.036 ± 0.008 | ke (30–60 min) [4, 7]: 0.049 ± 0.020 | ke (45–60 min) [4, 8]: 0.095 ± 0.044 | Vd [4, 5]: 4.86 ± 0.21 mL | Vd [4, 6]: 6.25 ± 0.77 mL | Vd [4, 7]: 4.70 ± 1.27 mL | Vd [4, 8]: 7.01 ± 0.81 mL

Source: article PMC6843445, “Pharmacokinetic Properties of Fluorescently Labelled Hydroxypropyl-Beta-Cyclodextrin” (Biomolecules, 2019)
